Test [1] relates to rat with scopolamine-induced cognitive impairment. The test can be described thus: Novel object recognition test using rats with scopolamine-induced cognitive impairment. The format is in vivo. The following applies: for percentage of exploration of the novel object during T2: scopolamine 0.7 mg/kg s.c., male Long Evans rats, mean ± standard error. How it is done: A novel object recognition test using rats with scopolamine-induced cognitive impairment was performed to confirm the effect of improving cognitive impairment induced by an acetylcholine nerve disorder. The novel object recognition test is a test system for assessing cognitive function based on the spontaneous behavioral characteristic of a rodent in which the rodent spends more time exploring a novel object than a familiar object. The test method described in Ennacer etc. Behavioural Brain Research, 31 (1988) pp. 47-51 was partially modified and performed.
Six-week-old male Long Evans rats (the Institute for Animal Reproduction) were subjected to the test. For two days before the test, a process for habituating the rat to the experimental procedure was performed once daily. In the habituation process, administration of a vehicle to the rat was performed, and subsequently, the rat was placed in an empty test apparatus (40 cm×30 cm×H 45 cm) and allowed to explore for 3 minutes, was transferred into a waiting chamber (13 cm×30 cm×H 45 cm) for about 1 minute, and then was returned into the empty test apparatus again and allowed to stay for 5 minutes.
On the day of the test, an acquisition trial (T1) was performed. Compound (I) was administered orally by using a solution of 0.5% methylcellulose in 0.01 M hydrochloric acid as a vehicle 2 hours before T1. Scopolamine (Wako Pure Chemical Industries, Ltd.) was administered subcutaneously by using a saline as a vehicle at a dose of 0.7 mg/kg 30 minutes before T1. […] The behaviors of the rat during T1 and T2 were recorded by a digital video camera and the total exploration time for each object was measured manually using a stopwatch. […]
In the novel object recognition test, a percentage of exploration of the novel object during T2 is considered as an amnesia index that reflects discrimination between the familiar object and the novel object. The percentage of exploration of the novel object was calculated in accordance with the following equation. […]
The results were expressed as mean±standard error. […]

The target of test [2] is phosphodiesterase 9 (PDE9) (Homo sapiens, UniProt O76083). Conditions: from Patent Literature 1; cited from earlier work.
phosphodiesterase 9 (PDE9), sequence (O76083 whole entry): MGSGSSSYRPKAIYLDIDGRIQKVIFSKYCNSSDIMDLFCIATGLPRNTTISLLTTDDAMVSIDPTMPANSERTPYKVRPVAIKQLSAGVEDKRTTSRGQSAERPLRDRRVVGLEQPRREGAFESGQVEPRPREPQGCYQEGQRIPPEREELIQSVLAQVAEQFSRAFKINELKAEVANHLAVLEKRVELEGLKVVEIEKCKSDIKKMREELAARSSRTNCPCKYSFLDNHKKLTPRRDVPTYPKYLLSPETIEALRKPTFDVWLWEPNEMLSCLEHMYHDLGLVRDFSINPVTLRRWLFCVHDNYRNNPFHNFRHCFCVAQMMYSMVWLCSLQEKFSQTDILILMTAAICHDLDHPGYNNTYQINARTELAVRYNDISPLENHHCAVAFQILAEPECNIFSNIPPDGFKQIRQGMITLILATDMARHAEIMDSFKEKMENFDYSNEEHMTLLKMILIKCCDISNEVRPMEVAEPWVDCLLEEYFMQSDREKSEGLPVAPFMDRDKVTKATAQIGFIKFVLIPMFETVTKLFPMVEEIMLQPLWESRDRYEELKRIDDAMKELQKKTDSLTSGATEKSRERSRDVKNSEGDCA

As to `COc1ncc(C)c(-c2ccc3c(c2)[nH]c(=O)c2cnn([C@H]4CCOC4)c23)c1C` [Compound (I), (S)-7-(2-methoxy-3,5-dimethylpyridin-4-yl)-1-(tetrahydrofuran-3-yl)-1H-pyrazolo[4,3-c]quinolin-4(5H)-one], the “percentage of exploration of the novel object during T2” value is on record as 68.5 ± 2.0 % in test [1] (3.3 mg/kg orally 2 hours before T1) and 68.5 ± 1.6 % in test [1] (10 mg/kg orally 2 hours before T1). For the same molecule, the “effect of improving the percentage of exploration of the novel object” value in test [1] (at 3.3 mg/kg and 10 mg/kg, versus disease control group, Dunnett's test, p<0.05) was “significant effect of improving the percentage of exploration of the novel object”. Moreover, the PDE9 inhibitory action entry in test [2] is “exhibits a PDE9 inhibitory action”.

(Values after US11311530B2, “Lewy body disease therapeutic agent containing pyrazoloquinoline derivative” (Eisai R&D Management Co., Ltd., priority 2017, dated 2022).)
